≈ marks a conversion by molar mass, not a printed value. Like-named read-outs stand apart in the source and are kept apart here.
Key:
MCF-10 cells = experiment: Mammalian cell toxicity (Alamar Blue); assay type: cell-based; conditions: cytotoxicity, 4 h incubation, read-out: IC50 MCF-10
Method: Adherent cell lines were maintained in Eagle's Minimal Essential Media (Sigma-Aldrich, St. Louis, MO, USA) with 2 mM glutamine and Earle's Balanced Salt Solution (HyClone, Logan, UT, USA) adjusted to contain 1.5 g/L sodium bicarbonate, 0.1 mM non-essential amino acids, 1 mM sodium pyruvate and 10% fetal calf serum. Fetal calf serum used in these assays was lot matched throughout. […] Toxicity assays were conducted between passages 10–20. Target compound toxicity was measured by incubating the test compound with the cells for 4 h, washing the cells and finally treating the cells with Alamar Blue. After 12–24 h, the fluorescence of the reduced dye was measured. Fluorescence intensity as a function of test compound concentration was fit to the Fermi equation, using non-linear least squares regression analysis, to estimate IC50 values.

Streptococcus pyogenes = experiment: MIC, broth microdilution with Alamar Blue; assay type: cell-based; conditions: for Selectivity S. pyogenes: IC50 (MCF10)/MIC (pathogen), both values in µM
Method: (§1) Stock solutions of standard antibiotics and test compounds were made at 50 mM in DMSO. […] For susceptibility testing, 10 µL of glycerol stock was suspended in a 10 mL shake flask culture of chemically defined Isosensitest broth (Oxoid) supplemented with 2% w/v glucose. A sample of the shake flask culture was diluted to 1×10^6 cells/mL in media and added to 96-well test plates (100 µL per well) containing test compounds dispensed in DMSO (2 µL) using serial two-fold dilutions. After an incubation period (30°C) determined from the strain specific doubling time, a 0.03% w/v aqueous solution of resazurin (10 µL) was added and the plates were allowed to incubate; each well was then scored for dye reduction.

S. aureus DHFR = biological target: T1, S. aureus DHFR (Staphylococcus aureus, UniProt P0A017); experiment: biochemical; assay type: biochemical; conditions: for Selectivity (h/Sa): IC50 (human)/IC50 (pathogen)
T1 construct: the DHFR gene was inserted into vector pET41 with a His8 tag for purification; His8; made in house; host or cells: E. coli BL21 (DE3)
Method: (§2) S. aureus DHFR was cloned, expressed and purified as previously described. Briefly, the DHFR gene was inserted into vector pET41 with a His8 tag for purification. The protein was expressed in E. coli BL21 (DE3) cells. […] The protein was concentrated to ∼5 mg/mL. S. pyogenes DHFR was cloned using PCR from genomic DNA and inserted in vector pET-41.
(§3) Enzyme inhibition assays were performed by monitoring the rate of NADPH oxidation by the DHFR enzyme at an absorbance of 340 nm over five minutes. Assays were performed in the presence of saturating concentrations of NADPH (100 µM) and initiated with dihydrofolate (1 mM). All assays were completed at 25°C in a buffer containing 20 mM TES pH 7.0, 50 mM KCl, 10 mM 2-mercaptoethanol, 0.5 mM EDTA and 1 mg/mL BSA. Inhibition was measured at least three times with inhibitor concentrations near the IC50 value and the average IC50 value is reported with a standard deviation.

S. pyogenes DHFR = S. pyogenes DHFR (Streptococcus pyogenes, UniProt Q9A091); experiment: biochemical; assay type: biochemical; conditions: for Selectivity (h/Sp): IC50 (human)/IC50 (pathogen); for IC50: S. pyogenes DHFR, average of at least three measurements, read-out: IC50 (nM) Sp
S. pyogenes DHFR, sequence (Q9A091 entry or part of it): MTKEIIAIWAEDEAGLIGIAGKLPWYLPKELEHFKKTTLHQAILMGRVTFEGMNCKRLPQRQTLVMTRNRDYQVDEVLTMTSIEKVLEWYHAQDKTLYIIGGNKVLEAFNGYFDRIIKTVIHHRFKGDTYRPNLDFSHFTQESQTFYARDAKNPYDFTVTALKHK
Method: as §2, §3

Human DHFR = biological target: T2, Human DHFR (Homo sapiens, UniProt P00374); experiment: DHFR enzyme inhibition assay (NADPH oxidation, 340 nm); assay type: biochemical
T2 sequence (P00374 1-187): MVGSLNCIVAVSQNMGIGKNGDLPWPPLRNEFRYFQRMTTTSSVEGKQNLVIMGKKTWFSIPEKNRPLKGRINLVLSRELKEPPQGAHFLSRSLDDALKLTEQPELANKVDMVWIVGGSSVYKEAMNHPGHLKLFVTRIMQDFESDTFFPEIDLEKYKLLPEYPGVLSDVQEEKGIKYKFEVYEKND
Method: as §3

MRSA (S.aureus 13709) = experiment: MIC, broth microdilution with Alamar Blue; assay type: cell-based, Staphylococcus aureus; conditions: for Selectivity MRSA: IC50 (MCF10)/MIC (pathogen), both values in µM
Method: as §1

HepG2 cells = experiment: Mammalian cell toxicity (Alamar Blue); assay type: cell-based; conditions: Homo sapiens, cytotoxicity, 4 h incubation
Method: Fetal calf serum used in these assays was lot matched throughout. All cultures were maintained under a humidified 5% CO2 atmosphere at 37°C, had media refreshed twice weekly and were subcultured by trypsinization and resuspension at a ratio of 1∶5 each week. Toxicity assays were conducted between passages 10–20. Target compound toxicity was measured by incubating the test compound with the cells for 4 h, washing the cells and finally treating the cells with Alamar Blue. After 12–24 h, the fluorescence of the reduced dye was measured. Fluorescence intensity as a function of test compound concentration was fit to the Fermi equation, using non-linear least squares regression analysis, to estimate IC50 values.

USA300 CA-MRSA = experiment: MIC against clinical isolates of MRSA; assay type: cell-based, Staphylococcus aureus
VISA Mu50 = experiment: MIC against clinical isolates of MRSA; assay type: cell-based; conditions: Staphylococcus aureus, read-out: MIC VISA Mu50
hVISA Mu3 = experiment: MIC against clinical isolates of MRSA; assay type: cell-based; conditions: Staphylococcus aureus, read-out: MIC hVISA Mu3
HA-MRSA = experiment: MIC against clinical isolates of MRSA; assay type: cell-based; conditions: Staphylococcus aureus, read-out: MIC HA-MRSA
USA100 HA-MRSA = experiment: MIC against clinical isolates of MRSA; assay type: cell-based; conditions: Staphylococcus aureus
[1] = test system: TMP-SMZ-resistant MRSA strain; experiment: MIC against clinical isolates of MRSA; assay type: cell-based; conditions: Staphylococcus aureus, read-out: MIC TMP-SMZ^R
[2] = Streptococcus pyogenes, 10% FCS, read-out: MIC S. pyogenes +FCS
[3] = Streptococcus pyogenes, 10% FCS, value in parentheses, read-out: MIC S. pyogenes +FCS
[4] = Streptococcus pyogenes, value in parentheses, read-out: MIC S. pyogenes
[5] = Streptococcus pyogenes, read-out: MIC S. pyogenes
[6] = Staphylococcus aureus, MRSA, 10% fetal calf serum, read-out: MIC MRSA +FCS
[7] = Staphylococcus aureus, MRSA, 10% fetal calf serum, value in parentheses, read-out: MIC MRSA +FCS
[8] = Staphylococcus aureus, MRSA, value in parentheses, read-out: MIC MRSA
[9] = Staphylococcus aureus, MRSA, read-out: MIC MRSA
[10] = S. aureus DHFR, average of at least three measurements, read-out: IC50 (nM) Sa
[11] = human DHFR, average of at least three measurements, read-out: IC50 (nM) Human
[12] = value in parentheses, read-out: MIC S. pyogenes
[13] = value in parentheses, read-out: MIC MRSA

IC50 (S. aureus DHFR; [10]) | MIC S. pyogenes (Streptococcus pyogenes) | MIC (Streptococcus pyogenes; [12]) | IC50 (S. pyogenes DHFR) | MIC MRSA (MRSA (S.aureus 13709)) | SMILES | IC50 (MCF-10 cells; Homo sapiens, MCF10) | Selectivity S. pyogenes (Streptococcus pyogenes) | MIC (Streptococcus pyogenes; [2]) | MIC (Streptococcus pyogenes; [3]) | MIC (Streptococcus pyogenes; [4]) | MIC (Streptococcus pyogenes; [5]) | Selectivity (h/Sa) (S. aureus DHFR) | Selectivity (h/Sp) (S. pyogenes DHFR) | Selectivity MRSA (MRSA (S.aureus 13709)) | MIC (MRSA (S.aureus 13709); [6]) | MIC (MRSA (S.aureus 13709); [7]) | MIC (MRSA (S.aureus 13709); [8]) | MIC (MRSA (S.aureus 13709); [9]) | IC50 (Human DHFR; [11]) | IC50 (MCF-10 cells) | further results
– | – | – | – | – | CCc1nc(N)nc(N)c1C#CCc1cccc(-c2cncnc2)c1 [Compound 37] | > 500 µM | >1,000 | 0.16 mg/L | 0.5 µM | 0.5 µM | 0.16 mg/L | 5 | 7 | >1,000 | 0.16 mg/L | 0.5 µM | 0.5 µM | 0.16 mg/L | – | – | IC50 (S. aureus DHFR): 35 ± 1.1 nM; IC50 (Human DHFR): 160 ± 13 nM
– | – | – | – | – | CN[C@H](CC(C)C)C(=O)N[C@H]1C(=O)N[C@@H](CC(N)=O)C(=O)N[C@H]2C(=O)N[C@H]3C(=O)N[C@H](C(=O)N[C@H](C(=O)O)c4cc(O)cc(O)c4-c4cc3ccc4O)[C@H](O)c3ccc(c(Cl)c3)Oc3cc2cc(c3O[C@@H]2O[C@H](CO)[C@@H](O)[C@H](O)[C@H]2O[C@H]2C[C@](C)(N)[C@H](O)[C@H](C)O2)Oc2ccc(cc2Cl)[C@H]1O [Vancomycin, reference compound] | – | – | – | – | – | – | – | – | – | – | – | – | – | – | – | MIC (USA300 CA-MRSA; Staphylococcus aureus, read-out: MIC USA300 CA-MRSA): 1 mg/L (≈ 0.69 µM); MIC USA300 CA-MRSA (USA300 CA-MRSA; clinical isolate, USA300): 1 mg/L (≈ 0.69 µM); MIC (VISA Mu50): 8 mg/L (≈ 5.52 µM); MIC (hVISA Mu3): 3 mg/L (≈ 2.07 µM); MIC (HA-MRSA): 1 mg/L (≈ 0.69 µM); MIC (USA100 HA-MRSA; read-out: MIC USA100 HA-MRSA, clinical isolate, USA100): 1 mg/L (≈ 0.69 µM); MIC (USA100 HA-MRSA; read-out: MIC USA100 HA-MRSA, clinical isolate, first USA100 column): 0.5 mg/L (≈ 0.345 µM); MIC (USA100 HA-MRSA; read-out: MIC USA100 HA-MRSA, clinical isolate, third USA100 column): 1 mg/L (≈ 0.69 µM); MIC [1]: 2 mg/L (≈ 1.38 µM)
28 ± 1.7 nM | 0.66 mg/L (≈ 2.01 µM) | 2 µM | 26 ± 1.7 nM | 0.66 mg/L (≈ 2.01 µM) | CCc1nc(N)nc(N)c1C#CCc1cccc(-c2ccccc2)c1 [Compound 8] | – | – | – | – | – | – | 10 | 11 | – | – | – | – | – | 290 ± 36 nM | 32 µM | MIC S. pyogenes +FCS (Streptococcus pyogenes; 10% FCS): 2.6 mg/L (≈ 7.92 µM); MIC (Streptococcus pyogenes; 10% FCS, value in parentheses, read-out: MIC S. pyogenes +FCS): 8 µM; MIC MRSA +FCS (MRSA (S.aureus 13709); 10% fetal calf serum): 5.2 mg/L (≈ 15.8 µM); MIC (MRSA (S.aureus 13709); 10% fetal calf serum, value in parentheses, read-out: MIC MRSA +FCS): 16 µM; MIC (MRSA (S.aureus 13709); [13]): 2 µM
410 ± 36 nM | 0.024 mg/L (≈ 0.0644 µM) | 0.064 µM | 350 ± 44 nM | 0.71 mg/L (≈ 1.91 µM) | COc1cc(-c2ccc(C)cc2)cc(C(C)C#Cc2c(C)nc(N)nc2N)c1 (racemic) [Compound 2] | – | – | – | – | – | – | – | – | – | – | – | – | – | – | 55 µM | MIC (MRSA (S.aureus 13709); [13]): 2 µM

SMILES | IC50 (S. aureus DHFR; [10]) | MIC S. pyogenes (Streptococcus pyogenes) | MIC (Streptococcus pyogenes; [12]) | IC50 (S. pyogenes DHFR) | MIC MRSA (MRSA (S.aureus 13709)) | IC50 (MCF-10 cells; Homo sapiens, MCF10) | Selectivity S. pyogenes (Streptococcus pyogenes) | MIC (Streptococcus pyogenes; [2]) | MIC (Streptococcus pyogenes; [3]) | MIC (Streptococcus pyogenes; [4]) | MIC (Streptococcus pyogenes; [5]) | Selectivity (h/Sa) (S. aureus DHFR) | Selectivity (h/Sp) (S. pyogenes DHFR) | Selectivity MRSA (MRSA (S.aureus 13709)) | MIC (MRSA (S.aureus 13709); [6]) | MIC (MRSA (S.aureus 13709); [7]) | MIC (MRSA (S.aureus 13709); [8]) | MIC (MRSA (S.aureus 13709); [9]) | IC50 (Human DHFR; [11]) | IC50 (MCF-10 cells) | further results
CCc1nc(N)nc(N)c1C#CC(C)c1cc(-c2ccccc2)ccc1OC (stereo not shown) [Compound 11] | 67 ± 5.5 nM | – | – | – | – | 54 µM | 27 | 6 mg/L | 16 µM | 2 µM | 0.74 mg/L | 1.5 | 4 | 27 | 11.9 mg/L | 32 µM | 2 µM | 0.74 mg/L | 100 ± 10 nM | – | IC50 (HepG2 cells): 77 µM

Source: publication PMC3274548, “Toward New Therapeutics for Skin and Soft Tissue Infections: Propargyl-Linked Antifolates Are Potent Inhibitors of MRSA and Streptococcus pyogenes” (PLoS ONE, 2012)
